In ChEMBL document CHEMBL4619709, “Synthesis and in-vitro anti-cancer evaluations of multi-methoxylated asymmetrical diarylpentanoids as intrinsic apoptosis inducer against colorectal cancer” (Bioorg Med Chem Lett, 2020):
Activity calls are given as the source filed them. The rule behind the calls is not given here.

Key:
[1] = Therapeutic index, ratio of IC50 for human NHDF cells to IC50 for human SW620 cells after 72 hrs; assay type: toxicity; details: NHDF cells versus SW620 cells, read-out: Ratio IC50
RKO [2] = experiment: Antiproliferative activity against human RKO cells at 10 uM after 72 hrs by MTT assay; assay type: functional, cell-based
SW-620 [3] = experiment: Antiproliferative activity against human SW620 cells assessed as reduction in cell viability after 72 hrs by MTT assay; assay type: functional, cell-based; details: SW-620, 72 h
NCI-H508 [4] = experiment: Antiproliferative activity against human NCI-H508 cells assessed as reduction in cell viability after 72 hrs by MTT assay; assay type: functional, cell-based; details: NCI-H508, 72 h
T84 [5] = experiment: Antiproliferative activity against human T84 cells assessed as reduction in cell viability after 72 hrs by MTT assay; assay type: functional, cell-based; details: T84, 72 h
LoVo [6] = experiment: Antiproliferative activity against human LoVo cells assessed as reduction in cell viability after 72 hrs by MTT assay; assay type: functional, cell-based
HT-29 [7] = experiment: Antiproliferative activity against human HT-29 cells at 10 uM after 72 hrs by MTT assay; assay type: functional, cell-based
HT-29 [8] = experiment: Antiproliferative activity against human HT-29 cells assessed as reduction in cell viability after 72 hrs by MTT assay; assay type: functional, cell-based; details: HT-29, 72 h
[9] = Therapeutic index, ratio of IC50 for human NHDF cells to IC50 for human HT-29 cells after 72 hrs; assay type: toxicity; details: NHDF cells versus HT-29 cells, read-out: Ratio IC50
[10] = Therapeutic index, ratio of IC50 for human NHDF cells to IC50 for human LoVo cells after 72 hrs; assay type: toxicity; details: NHDF cells versus LoVo cells, read-out: Ratio IC50
LoVo [11] = experiment: Antiproliferative activity against human LoVo cells at 10 uM after 72 hrs by MTT assay; assay type: functional, cell-based
[12] = Therapeutic index, ratio of IC50 for human NHDF cells to IC50 for human RKO cells after 72 hrs; assay type: toxicity; details: NHDF cells versus RKO cells, read-out: Ratio IC50
[13] = Therapeutic index, ratio of IC50 for human NHDF cells to IC50 for human T84 cells after 72 hrs; assay type: toxicity; details: NHDF cells versus T84 cells, read-out: Ratio IC50
SW-620 [14] = experiment: Antiproliferative activity against human SW620 cells at 10 uM after 72 hrs by MTT assay; assay type: functional, cell-based
T84 [15] = experiment: Antiproliferative activity against human T84 cells at 10 uM after 72 hrs by MTT assay; assay type: functional, cell-based
NCI-H508 [16] = experiment: Antiproliferative activity against human NCI-H508 cells at 10 uM after 72 hrs by MTT assay; assay type: functional, cell-based
[17] = Therapeutic index, ratio of IC50 for human NHDF cells to IC50 for human NCI-H508 cells after 72 hrs; assay type: toxicity; details: NHDF cells versus NCI-H508 cells, read-out: Ratio IC50
RKO [18] = experiment: Antiproliferative activity against human RKO cells assessed as reduction in cell viability after 72 hrs by MTT assay; assay type: functional, cell-based
NHDF = experiment: Cytotoxicity against human NHDF cells assessed as reduction in cell viability; assay type: cell-based

COc1ccc(/C=C2\CCC/C(=C\c3cc(OC)c(OC)c(OC)c3)C2=O)cc1OC
selectivity ratio at 72 h [1]: 3.1 to 4.5
Activity (RKO [2]): Active
IC50 (SW-620 [3]): 1.6 µM
IC50 (NCI-H508 [4]): 1.7 µM
IC50 (T84 [5]): 1.9 µM
IC50 (LoVo [6]): 1.7 µM
Activity (HT-29 [7]): Active
IC50 (HT-29 [8]): 1.5 µM
selectivity ratio at 72 h [9]: 3.1 to 4.5
selectivity ratio at 72 h [10]: 3.1 to 4.5
Activity (LoVo [11]): Active
selectivity ratio at 72 h [12]: 3.1 to 4.5
selectivity ratio at 72 h [13]: 3.1 to 4.5
Activity (SW-620 [14]): Active
Activity (T84 [15]): Active
Activity (NCI-H508 [16]): Active
selectivity ratio at 72 h [17]: 3.1 to 4.5
IC50 (RKO [18]): 1.3 µM

O=c1[nH]cc(F)c(=O)[nH]1 [FLUOROURACIL]
IC50 (SW-620 [3]): > 10 µM
IC50 (NCI-H508 [4]): 8.8 µM
IC50 (T84 [5]): > 10 µM
IC50 (LoVo [6]): 2.7 µM
IC50 (HT-29 [8]): > 10 µM
IC50 (NHDF): > 50 µM
IC50 (RKO [18]): 2.9 µM

COc1cc(/C=C2\CCC/C(=C\c3ccccc3Br)C2=O)cc(OC)c1OC
selectivity ratio at 72 h [1]: 3 to 5
Activity (RKO [2]): Active
IC50 (SW-620 [3]): 3.3 µM
IC50 (NCI-H508 [4]): 2.7 µM
IC50 (T84 [5]): 4.2 µM
IC50 (LoVo [6]): 2.8 µM
Activity (HT-29 [7]): Active
IC50 (HT-29 [8]): 2.8 µM
selectivity ratio at 72 h [9]: 3 to 5
IC50 (NHDF): 12.4 µM
selectivity ratio at 72 h [10]: 3 to 5
Activity (LoVo [11]): Active
selectivity ratio at 72 h [12]: 3 to 5
selectivity ratio at 72 h [13]: 3 to 5
Activity (SW-620 [14]): Active
Activity (T84 [15]): Active
Activity (NCI-H508 [16]): Active
selectivity ratio at 72 h [17]: 3 to 5
IC50 (RKO [18]): 2.5 µM

COc1cccc(/C=C2\CCC/C(=C\c3cc(OC)c(OC)c(OC)c3)C2=O)c1OC
selectivity ratio at 72 h [1]: 3.9 to 7.2
Activity (RKO [2]): Active
IC50 (SW-620 [3]): 4.5 µM
IC50 (NCI-H508 [4]): 4.8 µM
IC50 (T84 [5]): 3.9 µM
IC50 (LoVo [6]): 2.6 µM
Activity (HT-29 [7]): Active
IC50 (HT-29 [8]): 3.2 µM
selectivity ratio at 72 h [9]: 3.9 to 7.2
IC50 (NHDF): 18.8 µM
selectivity ratio at 72 h [10]: 3.9 to 7.2
Activity (LoVo [11]): Active
selectivity ratio at 72 h [12]: 3.9 to 7.2
selectivity ratio at 72 h [13]: 3.9 to 7.2
Activity (SW-620 [14]): Active
Activity (T84 [15]): Active
Activity (NCI-H508 [16]): Active
selectivity ratio at 72 h [17]: 3.9 to 7.2
IC50 (RKO [18]): 3.6 µM

COc1cc(/C=C2\CCC/C(=C\c3ccc(O)c(O)c3)C2=O)cc(OC)c1OC
selectivity ratio at 72 h [1]: 1.1 to 3.3
Activity (RKO [2]): Active
IC50 (SW-620 [3]): 3.2 µM
IC50 (NCI-H508 [4]): 7 µM
IC50 (T84 [5]): 3.6 µM
IC50 (LoVo [6]): 2.7 µM
Activity (HT-29 [7]): Active
IC50 (HT-29 [8]): 8.5 µM
selectivity ratio at 72 h [9]: 1.1 to 3.3
IC50 (NHDF): 9 µM
selectivity ratio at 72 h [10]: 1.1 to 3.3
Activity (LoVo [11]): Active
selectivity ratio at 72 h [12]: 1.1 to 3.3
selectivity ratio at 72 h [13]: 1.1 to 3.3
Activity (SW-620 [14]): Active
Activity (T84 [15]): Active
Activity (NCI-H508 [16]): Active
selectivity ratio at 72 h [17]: 1.1 to 3.3
IC50 (RKO [18]): 3.1 µM

COc1cc(/C=C2\CCC/C(=C\c3ccccc3F)C2=O)cc(OC)c1OC
selectivity ratio at 72 h [1]: 1.8 to 2.7
Activity (RKO [2]): Active
IC50 (SW-620 [3]): 2.1 µM
IC50 (NCI-H508 [4]): 2 µM
IC50 (T84 [5]): 2.2 µM
IC50 (LoVo [6]): 1.9 µM
Activity (HT-29 [7]): Active
IC50 (HT-29 [8]): 1.6 µM
selectivity ratio at 72 h [9]: 1.8 to 2.7
IC50 (NHDF): 4 µM
selectivity ratio at 72 h [10]: 1.8 to 2.7
Activity (LoVo [11]): Active
selectivity ratio at 72 h [12]: 1.8 to 2.7
selectivity ratio at 72 h [13]: 1.8 to 2.7
Activity (SW-620 [14]): Active
Activity (T84 [15]): Active
Activity (NCI-H508 [16]): Active
selectivity ratio at 72 h [17]: 1.8 to 2.7
IC50 (RKO [18]): 1.5 µM

COc1cc(/C=C2\CCC/C(=C\c3cccc(O)c3)C2=O)cc(OC)c1OC
selectivity ratio at 72 h [1]: 3.3 to 5.3
Activity (RKO [2]): Active
IC50 (SW-620 [3]): > 10 µM
IC50 (NCI-H508 [4]): 5.6 µM
IC50 (T84 [5]): 6.5 µM
IC50 (LoVo [6]): 4.8 µM
Activity (HT-29 [7]): Active
IC50 (HT-29 [8]): 7.6 µM
selectivity ratio at 72 h [9]: 3.3 to 5.3
IC50 (NHDF): 25.3 µM
selectivity ratio at 72 h [10]: 3.3 to 5.3
Activity (LoVo [11]): Active
selectivity ratio at 72 h [12]: 3.3 to 5.3
selectivity ratio at 72 h [13]: 3.3 to 5.3
Activity (SW-620 [14]): Active
Activity (T84 [15]): Active
Activity (NCI-H508 [16]): Active
selectivity ratio at 72 h [17]: 3.3 to 5.3
IC50 (RKO [18]): 6.5 µM

COc1cc(/C=C2\CCC/C(=C\c3ccc(F)c(F)c3)C2=O)cc(OC)c1OC
selectivity ratio at 72 h [1]: 2.7 to 6.5
Activity (RKO [2]): Active
IC50 (SW-620 [3]): 4.1 µM
IC50 (NCI-H508 [4]): 4 µM
IC50 (T84 [5]): 3.5 µM
IC50 (LoVo [6]): 2.3 µM
Activity (HT-29 [7]): Active
IC50 (HT-29 [8]): 1.7 µM
selectivity ratio at 72 h [9]: 2.7 to 6.5
IC50 (NHDF): 11.1 µM
selectivity ratio at 72 h [10]: 2.7 to 6.5
Activity (LoVo [11]): Active
selectivity ratio at 72 h [12]: 2.7 to 6.5
selectivity ratio at 72 h [13]: 2.7 to 6.5
Activity (SW-620 [14]): Active
Activity (T84 [15]): Active
Activity (NCI-H508 [16]): Active
selectivity ratio at 72 h [17]: 2.7 to 6.5
IC50 (RKO [18]): 2.2 µM

COc1ccccc1/C=C1\CCC/C(=C\c2cc(OC)c(OC)c(OC)c2)C1=O
selectivity ratio at 72 h [1]: 3.6 to 7.2
Activity (RKO [2]): Active
IC50 (SW-620 [3]): 2 µM
IC50 (NCI-H508 [4]): 2.2 µM
IC50 (T84 [5]): 2.1 µM
IC50 (LoVo [6]): 1.1 µM
Activity (HT-29 [7]): Active
IC50 (HT-29 [8]): 1.2 µM
selectivity ratio at 72 h [9]: 3.6 to 7.2
IC50 (NHDF): 7.9 µM
selectivity ratio at 72 h [10]: 3.6 to 7.2
Activity (LoVo [11]): Active
selectivity ratio at 72 h [12]: 3.6 to 7.2
selectivity ratio at 72 h [13]: 3.6 to 7.2
Activity (SW-620 [14]): Active
Activity (T84 [15]): Active
Activity (NCI-H508 [16]): Active
selectivity ratio at 72 h [17]: 3.6 to 7.2
IC50 (RKO [18]): 1.2 µM
